From US20120015981A1, “Active compound combinations” (Bayer CorpScience AG, priority 2009, published 2012) come the findings set out here.

The subject of this assay is Microdochium nivale. Kind of assay: Microdochium nivale test (lawn)/protective. It counts as in vivo. The settings on record: lawn (100% Agrostis stolonifera) in dishes; preventive application at 2000, 1000, 500 and 100 g/ha, 24 hours before inoculation with infected wheat grains; scoring after 5, 7, 14 and 21 days. As to the method: Microdochium nivale Test (Lawn)/Protective
Lawn seed (100% Agrostis stolonifera) was sown in dishes of the dimensions 38 cm×15 cm×9 cm. 7 days after sowing, the lawn was cut prior to preventive guanidinium hydroxide application at application rates of 2000, 1000, 500 and 100 g/ha. The water application rates were […] (converted). 24 hours after the preventive application of the active compound, the lawn was inoculated by placing of wheat grains infected with Microdochium nivale. In each case 3 wheat grains were placed into a single dish. Scoring of the subsequent fungal growth in the lawn dishes was carried out after 5, 7, 14 and 21 days. In the dishes which had been treated with guanidinium hydroxide, an inhibition of the growth of Microdochium nivale of up to 30% (Abbott) was observed.

For `N=C(N)N.O` [guanidinium hydroxide], the “inhibition of the growth of Microdochium nivale” value is recorded as “up to 30 % (Abbott)”.
